According to patent publication US7781580B2, “Stilbene derivatives as new cancer therapeutic agents” (Virginia Commonwealth University, priority 2007, dated 2010):
Counter-ions that a name gives are not always drawn.

Legend:
[1] = tested on: UCI101 ovarian cancer cells; assay: Alamar Blue cell growth inhibition, UCI101; assay type: cell-based; conditions: for relative potency / activity: UCI101, 48 hours
Protocol: Cell growth was measured by AlamarBlue™ staining and the percentage of cell growth inhibition was calculated and compared with the control cells that were treated with 0.1% DMSO, the vehicles for the stilbene compounds.
Cells were treated with the tested drug for 2 days before analysis of cell growth by Alamar Blue™ staining. Cells treated with 0.1% DMSO were used as control and set as 100%.
(§1) (a) In vitro sensitivity of UCI101 cells toward three potential stilbene prodrugs, 5a-c, was tested in 96-well plates using Alamar Blue™ assays to determine cell growth inhibition. […] (b) 5b induces cell cycle change and apoptosis in UCI101 cells. Cells were incubated with 5b at 1, 3, 10 μM for 16 hours followed by PI staining and flow cytometry analysis. A subG0/1 population, representing apoptotic cells, appeared along with a decrease of the G1/G2 ratio after cells were treated with 3 μM 5b. Higher concentration (10 μM) of 5b completely killed cells, as was the case with stilbene 4a at […]. (c) Cells treated with stilbene 4a and 5b were stained with phospho-histone 3B, a mitotic marker. The positive signals of phospho-histone 3B were shown in green and nuclei were stained with DAPI in blue. […] (d) In vivo efficacy of 5b compared with stilbene 4a. Nude mice were injected with UCI101 ovarian cancer cells and treated with 7 doses of 5b,c or stilbene 4a every 2-3 days. Tumor volume was calculated and plotted against days.
(§2) Various cancer cell lines were grown in 96-well plates for drug sensitivity assays. Once cells achieved 50% confluence, the incubation media was changed to the same cell growth media with different concentrations of the tested compounds or vehicle alone. Cells were then incubated for 48 hours before the cell growth inhibition study. To determine the degree of cell growth inhibition, 1/10 volume of Alamar Blue™ solution was added to each well and optical density (OD) at 570 and 600 nm was determined. The percentage of growth inhibition was calculated according to the manufacturer's formula as follows: The percentage of growth is [(117216×A570)−(80586×A600)]/[(117216×A^o570)−(80586×A^o600)]×100. In this formula, A570 is the absorbance of the treated samples at 570 nm; A600 is the absorbance of the treated samples at 600 nm; A^o570 is the absorbance of the […] samples at 570 nm; and A^o600 is the absorbance of the untreated samples at 600 nm. The two constants, 117216 and 80586, are the extinction coefficients of Alamar Blue™ at 570 and 600 nm respectively. Each concentration was repeated in triplicate to minimize the error.
(§3) We first tested the cytotoxic effect of various stilbene derivatives for their in vitro efficacy of suppressing tumor cell proliferation. Cells were first plated in 96-well plates at 50% confluence and treated with 0, 0.01, 0.03, 0.1, 0.3, 1.0, 3.0, 10 μM concentrations of stilbene derivatives for 48 hours in triplicate. Alamar Blue™ reagent was added into each well at 1/10 volume and incubated for 2 hours before quantification of the absorbance at 570 and 600 nm.

[2] = tested on: HL60 leukemic cells (xenograft); assay: HL60 xenograft model in SCID mice; assay type: in vivo; conditions: 5 mg/kg/day for 4 days
Protocol: FIG. 20. Effect of stilbene 4a in vivo. (a) Induction of cell death in vivo by stilbene 4a. Tumor was harvested at 24 hours after treatment for TUNEL assay. (b) Histological sections of tumor. Tumor harvested at 24 hours after injection of stilbene 4a was analyzed by H & E staining. The area with lighter color is the necrotic region. (c) Tumor growth suppression. SCID mice were injected subcutaneously with 5×10^6 HL60 cells at each flank. Once the diameter of tumor reached 5 mm in diameter in majority of mice, mice were treated with 5 daily injection of stilbene 4a. Tumor volume was calculated by the long and short axis of tumor and plotted against days. Each group contains 5 mice.
HL60 leukemic cells were injected subcutaneously into ICR-scid mice (Taconic Inc.) on flank. After tumor becomes visible after 12 days, Mice will be treated with stilbene 4a by intravenous injection after dissolved in 10% DMSO in normal saline. For acute effect study, mice were sacrificed 24 hours after injection and tumor and bone marrow were harvested for histological staining and flow cytometry analysis. For long term effect study, stilbenes were injected intravenously from tail veins at 2 or 10 mg/kg for 5 consecutive days. Negative control mice were treated with 10% DMSO in normal saline and positive control mice were treated with Ara-C at 5 mg/kg. Tumor volume was measured twice a week for 4 weeks by the long and short axes of tumor. Volume was calculated by the formula ab^2/2, in which “a” represents the long axis and “b” the short axis of tumor. Mice were euthanized if the calculated tumor reached 10% of the body weight.

[3] = tested on: UCI101 ovarian cancer cells (xenograft); assay: UCI101 xenograft in nude mice; assay type: in vivo
Protocol: as §1
We next tested whether 5b could be converted into stilbene 4a in circulation. […] Blood was collected at 20, 60 and 240 min after injection for spot check of stilbene 4a level in serum. […] The in vivo efficacy of 5b and 5c was compared to stilbene 4a in a pilot study using 5 mice in each group.

[4] = tested on: SKOV3 ovarian cancer cells; assay: Alamar Blue cell growth inhibition, SKOV3; assay type: cell-based
Protocol: Cells were incubated with various concentrations of the compounds for 48 hours. Cell growth was measured by Alamar Blue™ staining and the percentage of cell growth inhibition was calculated and compared with the control cells that were treated with 0.1% DMSO, the vehicle for the stilbene compounds.
as §2

Tubulin (>99% pure) = assay: tubulin polymerization assay (OD 340 nm); assay type: biochemical; conditions: OD340 nm; nocodazole and paclitaxel 10 μM
Protocol: FIG. 3a-d. Stilbenes inhibit tubulin polymerization. (a) Effect of stilbene 4a. Pure tubulin was incubated with various concentrations of stilbene 4a, 10 μM nocodazole, and 10 μM paclitaxel in the polymerization buffer. The OD at 340 nm was monitored every minute by SpectraMAX 250 and plotted against time. (b) Effect of stilbene 4c. (c) Comparison of same concentrations of stilbenes 4a, 4a trans, 4c and 4c trans with control. […] Tubulin was incubated with [^3H]-colchicine and various concentrations of different stilbenes for 20 min. Tubulin was then separated from the unbound [^3H]-colchicine by Microcon-30 and washed three times with PBS. The radioactivity of the tubulin was counted. […] All experiments were done in triplicates.
The tubulin polymerization assay kit was purchased from Cytoskeleton (Denver, Colo.). Tubulin (>99% pure) was mixed with general tubulin buffer (GTB, 80 mM PIPES pH 6.9, 2 mM MgCl2, 0.5 mM EGTA, and 1 mM GTP) in a 96-well plate at 37° C. Absorbance at 340 nm was measured every 1 min for 60 min by SpectraMAX 250 (Molecular Devices, Sunnyville, Calif.). Analysis of the results was performed by SoftMAX Pro version 1.2.0 from the same company.

[5] = tested on: SNU423 hepatocellular carcinoma cells; assay: Alamar Blue cell growth inhibition, SNU423; assay type: cell-based
Protocol: Cell growth was measured by Alamar Blue™ staining and the OD absorbance at 570 and 600 nm was determined by a microplate reader. The percentage of cell growth inhibition was calculated and compared with the control cells that were treated with 0.1% DMSO, the vehicle for the stilbene compounds.
as §2, §3

Row | melting point | Structure (SMILES) | relative potency / activity [1] | also measured
1 | 147 to 149 °C | CCOc1cc(/C=C/c2ccc(OC)c(N)c2)cc(OC)c1.Cl |  | 
2 |  | Nc1ccn([C@@H]2O[C@H](CO)[C@@H](O)[C@@H]2O)c(=O)n1 [Ara-C, reference compound] |  | adverse effect [2]: Ara-C-induced conjunctivitis
3 | 137 to 140 °C | C=CCOc1cc(/C=C/c2ccc(OC)c(N)c2)cc(OC)c1.Cl |  | 
4 | 134 to 136 °C | COc1cc(/C=C/c2ccc(OC)c(N)c2)cc(OC(C)C)c1.Cl |  | 
5 |  | COc1cc(/C=C\c2ccc(OC)c(N)c2)cc(OCC(=O)O)c1 [10f, (Z)-{3-[2-(3-Amino-4-methoxy-phenyl)-vinyl]-5-methoxy-phenoxy}-acetic acid] | not active | 
6 | 120 to 122 °C | COc1cc(/C=C\c2ccc(OC)c(N)c2)cc(OC(C)C)c1.Cl |  | 
7 |  | COc1cc(/C=C\c2ccc(OC)c(CN3C(=O)c4ccccc4C3=O)c2)cc(OC)c1 [3e, (Z)-2-{5-[2-(3,5-Dimethoxy-phenyl)-vinyl]-2-methoxy-benzyl}-isoindole-1,3-dione] |  | effective concentration, cell growth suppression ([1]; UCI101): > 3 µM
8 |  | COc1cc(/C=C\c2ccc(OC)c(NC(=O)OCCOCCOCCO)c2)cc(OC)c1 [5c, (Z)-{5-[2-(3,5-Dimethoxy-phenyl)-vinyl]-2-methoxy-phenyl}-carbamic acid-2-[2-(2-hydroxy-ethoxy)-ethoxy]-ethyl ester] | showed no activity | tumor growth versus control mice ([3]; 7 doses every 2-3 days): tumor growth rate the same as that of control mice; mouse weight ([3]; mouse, in vivo): did not show any significant change
9 |  | COc1cc2c(c(OC)c1OC)-c1ccc(OC)c(=O)cc1[C@@H](NC(C)=O)CC2 [colchicine, reference compound] |  | effective / active concentration ([4]; SKOV3, 48 hours): 0.1 µM
10 |  | COc1cc(/C=C\c2ccc3ccn(C)c3c2)cc(OC)c1 [13b, (Z)-6-[2-(3,5-Dimethoxy-phenyl)-vinyl]-1-methyl-1H-indole] | less potent than stilbene 4a by one log | 
11 | 157 to 159 °C | COc1cc(/C=C\c2ccc(OC)c(N)c2)cc(OCCO)c1 (as salt: hydrochloride) [10a, (Z)-2-{3-[2-(3-Amino-4-methoxy-phenyl)-vinyl]-5-methoxy-phenoxy}-ethanol, hydrochloride] |  | 
12 |  | COC(=O)Nc1nc2ccc(C(=O)c3cccs3)cc2[nH]1 [nocodazole, reference compound] |  | effect on tubulin polymerization (Tubulin (>99% pure)): suppressed
13 |  | COc1cccc2c1C(=O)c1c(O)c3c(c(O)c1C2=O)C[C@@](O)(C(=O)CO)C[C@@H]3O[C@H]1C[C@H](N)[C@H](O)[C@H](C)O1 [doxorubicin, reference compound] |  | relative potency ([5]; SNU423): potency similar to that of 10a
14 |  | COc1ccc(/C=C\c2ccc3c(ccn3C)c2)cc1N [14b, (Z)-2-Methoxy-5-[2-(1-methyl-1H-indol-5-yl)-vinyl]-phenylamine] | less potent than stilbene 4a by one log | 
15 |  | COc1cc(/C=C\c2ccc(OC)c(C(=O)O)c2)cc(OC)c1 [4d, (Z)-5-[2-(3,5-Dimethoxy-phenyl)-vinyl]-2-methoxybenzoic acid.] |  | activity ([4]; SKOV3): not active; effective concentration, blocking cell proliferation ([5]; SNU423, 48 hours): > 10 µM
16 |  | COc1cc(/C=C\c2ccc(OC)c(NC(=O)NCCN3CCOCC3)c2)cc(OC)c1 [5a, (Z)1-{5-[2-(3,5-Dimethoxy-phenyl)-vinyl]-2-methoxy-phenyl}-3-(2-morpholin-4-yl-ethyl)-urea, hydrochloride] | showed no activity | 

Row | Structure (SMILES) | melting point | relative potency / activity [1] | also measured
17 | COc1ccc(/C=C\c2ccc3[nH]ccc3c2)cc1N.O=C(O)C(=O)O [14a, (Z)-5-[2-(1H-Indol-5-yl)-vinyl]-2-methoxy-phenylamine, oxalate salt] | 112 to 115 °C | not active | 
18 | CCOc1cc(/C=C\c2ccc(OC)c(N)c2)cc(OC)c1.Cl [10b, (Z)-5-[2-(3-Ethoxy-5-methoxy-phenyl)-vinyl]-2-methoxy-phenylamine, hydrochloride] | 127 to 131 °C | active but less effective than stilbene 4a | 
19 | C=CCOc1cc(/C=C\c2ccc(OC)c(N)c2)cc(OC)c1.Cl [10e, (Z)-5-[2-(3-Allyloxy-5-methoxy-phenyl)-vinyl]-2-methoxy-phenylamine, hydrochloride] | 122 to 125 °C | active but less effective than stilbene 4a | 
